Tests used:
UGT1A4 = target: T1, UGT1A4 (Homo sapiens, UniProt P22310); experiment: UGT1A4-catalyzed trifluoperazine N-glucuronidation inhibition in pooled human liver microsomes; type: in vitro ADME; details: 5 μM trifluoperazine, pooled HLM (H161)
T1 sequence (P22310 29-534): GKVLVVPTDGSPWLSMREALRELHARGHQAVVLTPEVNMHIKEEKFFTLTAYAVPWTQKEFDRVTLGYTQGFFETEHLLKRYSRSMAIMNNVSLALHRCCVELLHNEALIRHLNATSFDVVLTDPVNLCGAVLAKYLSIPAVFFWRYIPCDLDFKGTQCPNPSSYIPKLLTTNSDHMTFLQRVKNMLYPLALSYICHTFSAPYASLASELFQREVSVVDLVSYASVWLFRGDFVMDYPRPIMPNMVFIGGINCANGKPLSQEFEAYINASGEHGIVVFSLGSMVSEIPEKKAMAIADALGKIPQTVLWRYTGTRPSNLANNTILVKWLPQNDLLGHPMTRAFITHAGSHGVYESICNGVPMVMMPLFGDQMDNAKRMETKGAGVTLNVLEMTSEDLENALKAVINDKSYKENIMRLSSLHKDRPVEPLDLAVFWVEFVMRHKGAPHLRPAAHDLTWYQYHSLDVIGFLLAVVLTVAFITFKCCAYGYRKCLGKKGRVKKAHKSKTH
Experimental: (§1) The inhibitory potency (IC50 value) of honokiol on UGT1A1-catalyzed 17β-estradiol 3-glucuronidation, UGT1A4-catalyzed trifluoperazine glucuronidation, UGT1A9-catalyzed propofol glucuronidation, and UGT2B7-catalyzed azidothymidine glucuronidation activities was determined in pooled human liver microsomes by LC-MS/MS [48]. […] Reactions were initiated by the addition of UDPGA (final concentration, 5 mM), and incubations were carried out at 37 °C in a shaking water bath for 30 min. Reactions were terminated by adding 100 μL of ice-cold methanol containing an internal standard (500 ng/mL ezetimibe for 17β-estradiol 3-glucuronide and propofol glucuronide; 30 ng/mL meloxicam for trifluoperazine glucuronide and azidothymidine glucuronide). The incubation mixtures were then centrifuged at 13,000 × g for 4 min, followed by dilution of 30 μL of the supernatant with 70 μL of water. An aliquot (5 μL) was injected onto the LC-MS/MS. All incubations were performed in triplicate and the mean values were used. Glucuronides produced from UGT isoform-specific substrates were determined by LC-MS/MS [49].
(§2) The apparent kinetic parameters for inhibitory potential (Ki values) were estimated from the fitted curves using Enzyme Kinetics Ver. 1.1 software (Systat Software Inc.).

UGT2B7 = target: T2, UGT2B7 (Homo sapiens, UniProt P16662); experiment: UGT2B7-catalyzed azidothymidine glucuronidation inhibition in pooled human liver microsomes; type: in vitro ADME; details: 100 μM azidothymidine, pooled HLM (H161)
T2 sequence (P16662 24-529): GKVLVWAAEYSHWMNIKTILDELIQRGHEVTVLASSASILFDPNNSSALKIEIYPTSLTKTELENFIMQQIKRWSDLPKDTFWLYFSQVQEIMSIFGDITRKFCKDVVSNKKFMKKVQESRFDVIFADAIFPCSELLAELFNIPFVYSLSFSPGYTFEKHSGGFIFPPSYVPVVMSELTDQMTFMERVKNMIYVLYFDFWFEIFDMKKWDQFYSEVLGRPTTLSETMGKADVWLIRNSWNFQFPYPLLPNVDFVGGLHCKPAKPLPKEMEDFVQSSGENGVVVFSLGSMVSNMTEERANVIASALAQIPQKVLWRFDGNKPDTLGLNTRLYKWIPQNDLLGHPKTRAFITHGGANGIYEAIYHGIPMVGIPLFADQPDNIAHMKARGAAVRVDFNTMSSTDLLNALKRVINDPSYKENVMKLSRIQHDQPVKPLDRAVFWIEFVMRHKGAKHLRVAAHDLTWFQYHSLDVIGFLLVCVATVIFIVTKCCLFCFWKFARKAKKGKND
Experimental: as §1, §2

Compound: C=CCc1ccc(O)c(-c2ccc(O)c(CC=C)c2)c1 [honokiol, 2-(4-hydroxy-3-prop-2-enyl-phenyl)-4-prop-2-enyl-phenol]
- IC50 (UGT1A4): 158 µM
- IC50 (UGT2B7): 36.4 µM
